Laboratory results taken from patent EP4151203B1, “RAPESEED MEAL EXTRACT, METHOD FOR PREPARING SAME AND USE IN COSMETICS, IN PARTICULAR AS A PRO-PIGMENTING, SLIMMING AGENT” (Lyster, priority 2021, dated 2023).
“And” between values parts separate entries of the source, which are not always exact repeats. Identical values can stand only once. Marks after values point to notes of the source that are not given here.

What was measured:
[1] = tested on: mélanocytes humains normaux; test: Propigmenting activity: melanin production by melanocytes (optical density at 405 nm); format: cell-based, humain; conditions: 250 µM
Experimental: Les mesures de l'activité propigmentante (augmentation de la production de mélanine) de plusieurs compositions de l'extrait de tourteau de colza présentant des concentrations différentes ont été effectuée par dosage des mélanocytes humains normaux in vitro.
Les compositions de concentrations 0,03% (v/v), 0,1% (v/v), et 0,3% (v/v) ont été préparées par dilution de la solution 50/50 dans le milieu d'incubation.
Les cultures des mélanocytes normaux d'épiderme humain ont été cultivés en culture monocouche jusqu'à confluence. Puis les mélanocytes ont été incubés pendant 72 heures soit en l'absence de l'extrait à tester (contrôle) soit en présence des différentes compositions de l'extrait à tester. Le produit de référence pour l'inhibition de la synthèse de mélanine était une solution d'acide kojique à 250 µM.
Les quantités de mélanine produite par les mélanocytes ont été déterminées par une méthode spectrophotométrique c'est-à-dire une mesure de densité optique à 405 nm effectuée au moyen d'un spectrophotomètre « Genesys 150 » de la société ThermoFisher Scientific.
Le tableau 7 présente la quantité de mélanine (µg) produite par mg de protéines totales dans le lysat cellulaire monocouche.
Le niveau de signification entre le "contrôle" et la « référence » a été évalué à l'aide d'un test t de Student (* : p<0,05). [Tableau 7]

[2] = tested on: adipocytes humains normaux; test: Lipolytic activity: NEFA released by adipocytes in suspension; format: cell-based, humain; conditions: for NEFA, Moyenne / NEFA: 2 h; for NEFA, Moyenne: mean of 3, p<0.05 vs control; for NEFA: single replicate
Text: Les mesures de l'activité lipolytique de plusieurs compositions d'extrait de tourteau de colza à des concentrations différentes ont été effectuées sur des adipocytes humains normaux de tissu cutané adipeux prélevé sur un adulte de 40 ans. Une suspension des adipocytes humains a été incubée pendant 2 H en présence d'une part des compositions d'extrait à tester et d'autre part du produit de référence (contrôle).
Les compositions de concentrations 0,003% (v/v), 0,01% (v/v), et 0,03% (v/v) d'extrait de tourteau de colza ont été préparées par dilution de la solution 50/50 dans le milieu d'incubation.
À la fin de la période d'incubation, la quantité de NEFA libérés dans le milieu d'incubation a été déterminée à l'aide d'un kit de mesure spectro-colométrique spécifique et sensible.
Le niveau de signification entre le "contrôle" et le "produit de référence" a été évalué à l'aide d'un test t de Student (* : p<0,05).
Le niveau de signification entre le le "contrôle" et chaque "composé testé" a été évalué indépendamment pour chaque composition par une analyse de variance à un facteur (ANOVA à sens unique) suivie d'un test de Holm-Sidak (* : p<0,05).

SMILES | mélanine, % du contrôle ([1]; 72 h) [%] | µg mélanine/mg de protéines, Moyenne ([1]; 72 h, mean of 3, p<0.01 vs control) | µg mélanine/mg de protéines ([1]; 72 h, single replicate) | inhibe la production de mélanine ([1]; inhibition vs control, significant) | NEFA, Moyenne ([2]; 10^-3 mol/L) | NEFA ([2]; 10^-3 mol/L) | augmente la lipolyse des adipocytes ([2]; 10^-3 mol/L, increase vs control, p<0.05) [%] | NEFA, Moyenne ([2]; 10^-4 mol/L) | NEFA ([2]; 10^-4 mol/L)
O=c1cc(CO)occ1O [acide kojique] | 52.4 | 35.8** µg mélanine/mg de protéines | 45.1 µg mélanine/mg de protéines and 30.3 µg mélanine/mg de protéines and 32.0 µg mélanine/mg de protéines | 47,6% |  |  |  |  | 
Cn1c(=O)c2c(ncn2C)n(C)c1=O [Caféine, caféine] |  |  |  |  | 47.9* µM | 41.5 µM and 50.3 µM and 51.9 µM | 41.1 | 37.7* µM | 37.1 µM and 38.8 µM and 37.2 µM
